Columns and labels:
Mer = Mer (Homo sapiens (Human), UniProt Q12866); assay: Mer kinase inhibition assay (Cisbio method, Eu-labeled antibody to phosphorylated peptide); details: read-out: IC50 (μM) Mer; 1 hour reaction with substrate peptide and ATP
Experimental: (§1) For evaluation of inhibitory activities of the compounds according to the present invention on Tyro 3, Axl, and Mer, the following test was carried out.
(§2) The specific test method followed the method provided by Cisbio. The compounds of the examples were prepared at various concentrations, followed by addition of Tyro 3, Axl, or Mer and substrate peptides, and then ATP was added to initiate a reaction. After 1 hour, the reaction was stopped by addition of a solution containing EDTA. Thereafter, the amount of phosphorylated peptides was measured. Here, the phosphorylated peptides were treated with an europium (Eu)-labeled antibody recognizing phosphorylated peptides, and then after 1 hour, excited by irradiation of the light of a wavelength of 320 or 340 nm using an Envision Reader.

Tyro 3 = Tyro 3 (Homo sapiens (Human), UniProt Q06418); assay: Tyro 3 kinase inhibition assay (Cisbio method, Eu-labeled antibody to phosphorylated peptide); details: read-out: IC50 (μM) Tyro 3; 1 hour reaction with substrate peptide and ATP
Experimental: as §1, §2

Axl = Axl (Homo sapiens (Human), UniProt P30530); assay: Axl kinase inhibition assay (Cisbio method, Eu-labeled antibody to phosphorylated peptide); details: read-out: IC50 (μM) Axl; 1 hour reaction with substrate peptide and ATP
Axl, sequence (P30530 26-894): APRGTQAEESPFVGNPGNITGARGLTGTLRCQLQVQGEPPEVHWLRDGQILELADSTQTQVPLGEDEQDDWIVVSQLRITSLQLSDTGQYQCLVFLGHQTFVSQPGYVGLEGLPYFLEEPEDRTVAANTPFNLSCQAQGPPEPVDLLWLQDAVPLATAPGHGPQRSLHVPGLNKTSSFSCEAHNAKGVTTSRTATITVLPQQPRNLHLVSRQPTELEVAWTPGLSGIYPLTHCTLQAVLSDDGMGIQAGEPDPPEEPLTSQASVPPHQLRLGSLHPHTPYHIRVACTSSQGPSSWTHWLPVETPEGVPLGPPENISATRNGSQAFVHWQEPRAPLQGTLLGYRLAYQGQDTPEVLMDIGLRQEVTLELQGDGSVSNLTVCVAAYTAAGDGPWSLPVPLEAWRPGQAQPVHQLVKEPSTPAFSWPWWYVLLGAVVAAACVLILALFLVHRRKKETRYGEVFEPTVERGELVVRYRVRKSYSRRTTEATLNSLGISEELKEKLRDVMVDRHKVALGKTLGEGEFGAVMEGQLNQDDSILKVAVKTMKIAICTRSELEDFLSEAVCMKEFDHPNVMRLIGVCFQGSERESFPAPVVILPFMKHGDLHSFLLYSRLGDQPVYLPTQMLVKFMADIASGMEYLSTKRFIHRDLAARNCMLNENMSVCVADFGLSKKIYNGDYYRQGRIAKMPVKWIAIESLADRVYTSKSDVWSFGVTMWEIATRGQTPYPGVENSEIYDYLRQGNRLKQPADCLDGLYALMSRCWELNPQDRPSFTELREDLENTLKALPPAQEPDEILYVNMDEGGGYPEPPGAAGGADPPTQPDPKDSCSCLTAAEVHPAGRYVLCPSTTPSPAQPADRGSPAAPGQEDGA
Experimental: as §1, §2

Tyro 3, sequence (Q06418 41-890): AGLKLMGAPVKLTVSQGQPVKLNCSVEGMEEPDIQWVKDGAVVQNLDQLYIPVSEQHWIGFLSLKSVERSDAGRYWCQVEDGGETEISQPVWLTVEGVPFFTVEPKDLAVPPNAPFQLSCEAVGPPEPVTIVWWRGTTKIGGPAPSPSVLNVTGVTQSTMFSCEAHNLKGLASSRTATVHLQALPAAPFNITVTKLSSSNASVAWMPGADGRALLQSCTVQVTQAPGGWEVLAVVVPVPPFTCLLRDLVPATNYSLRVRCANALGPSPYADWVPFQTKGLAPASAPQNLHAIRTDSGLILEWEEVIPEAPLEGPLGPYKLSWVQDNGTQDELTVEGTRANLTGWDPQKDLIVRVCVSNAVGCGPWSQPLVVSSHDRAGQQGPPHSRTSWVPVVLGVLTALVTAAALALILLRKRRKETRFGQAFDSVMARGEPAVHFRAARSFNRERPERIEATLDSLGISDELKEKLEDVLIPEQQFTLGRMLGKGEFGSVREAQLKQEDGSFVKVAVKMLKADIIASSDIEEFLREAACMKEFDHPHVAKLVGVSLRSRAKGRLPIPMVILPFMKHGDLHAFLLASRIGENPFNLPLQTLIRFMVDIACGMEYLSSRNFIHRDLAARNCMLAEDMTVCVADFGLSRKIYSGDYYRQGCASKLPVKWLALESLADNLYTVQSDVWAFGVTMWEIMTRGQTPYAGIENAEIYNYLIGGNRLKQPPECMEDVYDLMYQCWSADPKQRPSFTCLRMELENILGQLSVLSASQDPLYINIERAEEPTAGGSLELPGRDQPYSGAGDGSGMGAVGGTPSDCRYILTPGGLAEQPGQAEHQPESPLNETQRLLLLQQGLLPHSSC
Mer, sequence (Q12866 21-999): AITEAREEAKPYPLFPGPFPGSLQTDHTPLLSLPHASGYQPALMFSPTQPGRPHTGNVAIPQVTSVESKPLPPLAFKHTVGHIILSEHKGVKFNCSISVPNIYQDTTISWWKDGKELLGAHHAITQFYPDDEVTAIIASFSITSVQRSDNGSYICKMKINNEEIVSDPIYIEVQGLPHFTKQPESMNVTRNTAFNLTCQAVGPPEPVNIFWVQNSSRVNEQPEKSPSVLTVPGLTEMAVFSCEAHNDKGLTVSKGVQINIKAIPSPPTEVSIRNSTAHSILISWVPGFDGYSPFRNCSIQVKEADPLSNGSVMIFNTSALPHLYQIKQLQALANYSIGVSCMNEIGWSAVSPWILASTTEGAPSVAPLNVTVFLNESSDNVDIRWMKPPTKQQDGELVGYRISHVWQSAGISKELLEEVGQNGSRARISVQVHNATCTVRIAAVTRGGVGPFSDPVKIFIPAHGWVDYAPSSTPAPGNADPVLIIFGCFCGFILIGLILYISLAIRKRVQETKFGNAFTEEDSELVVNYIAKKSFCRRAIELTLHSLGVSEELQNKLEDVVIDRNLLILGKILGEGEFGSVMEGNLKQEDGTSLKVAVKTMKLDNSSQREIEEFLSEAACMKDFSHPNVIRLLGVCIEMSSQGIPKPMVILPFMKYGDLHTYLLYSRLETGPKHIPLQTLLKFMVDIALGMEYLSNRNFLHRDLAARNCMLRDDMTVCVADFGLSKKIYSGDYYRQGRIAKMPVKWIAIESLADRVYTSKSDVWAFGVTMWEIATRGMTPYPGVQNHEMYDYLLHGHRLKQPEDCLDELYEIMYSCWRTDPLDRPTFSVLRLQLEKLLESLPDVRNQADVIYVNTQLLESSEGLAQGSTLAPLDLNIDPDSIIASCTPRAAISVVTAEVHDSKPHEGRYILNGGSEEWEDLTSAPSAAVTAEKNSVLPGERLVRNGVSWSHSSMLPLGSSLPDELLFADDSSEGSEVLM

IC50 (Mer) [µM]	IC50 (Tyro 3) [µM]	IC50 (Axl) [µM]	SMILES
> 10	> 10	> 10	Cc1ccc(Nc2ncc(Br)c(NC3CCCCC3)n2)cc1 [Compound 1, 5-bromo-N4-cyclohexyl-N2-(p-tolyl)pyrimidine-2,4-diamine]
> 10	> 10	–	Cn1cc(-c2cnc(Cl)nc2NC2CCCCC2)cn1 [Compound 4, 2-chloro-N4-cyclohexyl-5-(1-methyl-1H-pyrazol-4-yl)pyrimidine-4-amine]
> 2	–	> 10	Cn1cc(-c2cnc(Nc3cc(Cl)cc(Cl)c3)nc2NC2CCCCC2)cn1 [Compound 5, N4-cyclohexyl-N2-(3,5-dichlorophenyl)-5-(1-methyl-1H-pyrazol-4-yl)pyrimidine-2,4-diamine]
–	6.2e-06	> 10	Cn1cc(-c2cnc(Nc3cc(C(F)(F)F)cc(C(F)(F)F)c3)nc2Nc2ccc3c(c2)CN(C(=O)C(F)(F)F)CC3)cn1 [Compound 139, 1-(7-(2-(3,5-bis(trifluoromethyl)phenylamino)-5-(1-methyl-1H-pyrazol-4-yl)pyrimidin-4-ylamino)-3,4-dihydroisoquinolin-2(1H)-yl)-2,2,2-trifluoroethan-1-one]
